Test results as given in article PMC2854715, “Oxpholipin 11D: An Anti-Inflammatory Peptide That Binds Cholesterol and Oxidized Phospholipids” (PLoS ONE, 2010).
Like-named read-outs stand apart in the source and are kept apart here. Non-standard residues stand in square brackets, D forms with d.

Tests used:
apoE deficient mice = assay: In vivo activity in apoE deficient mice: HDL inflammatory index
Method: (§1) As previously described, [64], HAEC cells were treated with native LDL (250 µg/ml) in the absence or presence of HDL or tested peptides for 8 h. After these cultures were washed, the medium was replaced by fresh Medium 199 and the cultures were incubated for an additional 8 h. This culture medium was collected and assayed for monocyte chemotactic activity using chambers purchased from Neuroprobe (Cabin John, MD). After monocytes were added to the upper compartment, the chamber was incubated for 60 min at 37°C and subsequently disassembled. The membrane was rinsed, air dried, fixed with 1% glutaraldehyde, stained with 0.1% crystal violet dye, and 12 standardized high power fields were examined microscopically. The number of migrated monocytes was expressed as the mean ±SD of monocytes counted. Values obtained in the absence of HDL were normalized to a value of 1.0. Normalized values >1.0 after HDL addition were considered to be pro-inflammatory, and values <1.0 as being anti-inflammatory.
ApoE null mice on a C57BL/6J background, originally from Jackson Laboratories (Bar Harbor, ME), were maintained in a breeding colony in the Department of Laboratory and Animal Medicine at the David Geffen School of Medicine at UCLA. The mice were maintained on a chow diet (Ralston Purina, St. Louis, MO).
Six hours later, and with continued fasting, blood was removed from the retro-orbital sinus under mild isoflurane anesthesia, and anticoagulated with heparin (2.5 U/ml). Plasma was obtained and fractionated by FPLC. HDL-containing fractions were tested in HAEC cultures for their ability to inhibit LDL-induced monocyte chemotactic activity. All procedures conformed to regulations of the UCLA Animal Research Committee. An HDL inflammatory index was determined using the standard monocyte chemotaxis assay. Indices >1 were interpreted as pro-inflammatory, and indices <1 as anti-inflammatory.

[1] = system: LDL-induced monocyte chemotaxis in cultured human aortic endothelial cells (HAEC); assay: Monocyte chemotaxis assay (LDL-treated HAEC cultures); format: cell-based; settings: for Monocyte chemotactic activity, dose response: Figure 2; for Monocyte chemotactic activity, Inflammatory Index (II): peptide 1 µg/ml, HAEC treated with LDL 250 µg/ml 8 h, standardized to LDL, II<1 anti-inflammatory, Figure 1
Method: Normal human monocytes were isolated as previously described. Human aortic endothelial cells (HAEC) were isolated and maintained as previously reported. Acquisition and use of these cells was in accordance with protocols approved by the UCLA Human Research Subject Protection Committee.
as §1

Bovine albumin = biological target: T1, Bovine albumin (Bos taurus, UniProt P02769); settings: SPR; mean ± SEM; read-out: KD ± SEM, bovine albumin (control); cited from earlier work
T1 construct: purchased Sigma-Aldrich
T1 sequence (P02769 25-607): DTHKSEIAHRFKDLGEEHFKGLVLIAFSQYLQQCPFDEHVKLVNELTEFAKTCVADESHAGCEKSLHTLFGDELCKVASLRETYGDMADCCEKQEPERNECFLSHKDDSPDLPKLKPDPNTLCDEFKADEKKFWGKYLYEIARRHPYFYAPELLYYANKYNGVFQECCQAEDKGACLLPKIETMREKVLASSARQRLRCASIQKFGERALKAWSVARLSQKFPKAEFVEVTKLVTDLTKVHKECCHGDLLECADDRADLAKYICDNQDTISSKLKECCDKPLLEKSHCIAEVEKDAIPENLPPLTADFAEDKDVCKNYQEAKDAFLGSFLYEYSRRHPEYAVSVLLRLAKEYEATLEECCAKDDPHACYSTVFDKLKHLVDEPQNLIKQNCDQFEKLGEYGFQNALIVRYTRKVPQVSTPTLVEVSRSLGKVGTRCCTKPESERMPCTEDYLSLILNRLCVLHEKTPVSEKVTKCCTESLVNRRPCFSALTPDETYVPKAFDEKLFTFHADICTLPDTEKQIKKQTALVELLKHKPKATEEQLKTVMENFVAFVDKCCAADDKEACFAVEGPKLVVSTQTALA
From the text: (§2) Table 3 Binding of OxP-11D and D-4F to oxidized and nonoxidized (phospho)lipids and sterols. | column: apoA-I; KD ± SEM (M) / D-4F

[2] = SPR, mean ± SEM, cited from earlier work
From the text: as §2

human RBCs = assay: Inhibition of CDC-mediated hemolysis; format: cell-based; settings: data not shown
[3] = peptide 0.01 µg/ml (10 ng/ml) versus 1 µg/ml
[4] = peptide 0.1 µg/ml versus 1 µg/ml
[5] = read-out: KD ± SEM, 12(S)-HPETE
[6] = read-out: KD ± SEM, 13(S)-HPODE
[7] = read-out: KD ± SEM, 15(S)-HPETE
[8] = read-out: KD ± SEM, arachidonic acid
[9] = read-out: KD ± SEM, linoleic acid
[10] = read-out: KD ± SEM, palmitic acid

| Substance | Monocyte chemotactic activity, dose response [1, 3] | Monocyte chemotactic activity, dose response [1, 4] | Monocyte chemotactic activity, Inflammatory Index (II) [1] | Kd (Bovine albumin) [nM] | Kd ([2]; read-out: KD ± SEM, 5(S)-HPETE) [µM] | Kd ([2]; read-out: KD ± SEM, 9(S)-HODE) [µM] | Kd ([2]; read-out: KD ± SEM, 12(S)-HETE) [µM] | Kd [2, 5] [µM] | Kd ([2]; read-out: KD ± SEM, 13(S)-HODE) [µM] | Kd [2, 6] [µM] | Kd ([2]; read-out: KD ± SEM, 15(S)-HETE) [µM] | Kd [2, 7] [µM] | Kd ([2]; read-out: KD ± SEM, KOdiA-PC) [µM] | Kd ([2]; read-out: KD ± SEM, PEIPC) [µM] | Kd ([2]; read-out: KD ± SEM, POVPC) [µM] | Kd [2, 8] [µM] | Kd [2, 9] [µM] | Kd [2, 10] [µM] | further results |
| --- | --- | --- | --- | --- | --- | --- | --- | --- | --- | --- | --- | --- | --- | --- | --- | --- | --- | --- | --- |
| RE-Dpa-Thr-G-Leu-Ala-Trp-E-Trp-Trp-RT-Val-NH2 [OxP-11] | reduced activity substantially | relatively small decrease in activity | very similar activity | – | – | – | – | – | – | – | – | – | – | – | – | – | – | – | HDL Inflammatory Index in vivo (apoE deficient mice; lower doses 0.5 and 0.1 mg/kg subcutaneously, apoE deficient mice, Figure 3B): considerably less active than L-4F |
| Ac-DWFKAFYDKVAEKFKEAF-NH2 (Ac-[dD][dW][dF][dK][dA][dF][dY][dD][dK][dV][dA][dE][dK][dF][dK][dE][dA][dF]-NH2) [D-4F, a prominent apoA-I-mimetic peptide, Ac-…-NH2, reference compound] | – | – | – | 3900 | – | – | – | – | – | – | – | – | – | – | – | – | – | – | – |
| Ac-DWFKAFYDKVAEKFKEAF-NH2 [D-4F, a prominent apoA-I-mimetic peptide, Ac-…-NH2, reference compound] | – | – | very similar activity | – | 0.018 | 0.015 | 0.018 | 0.17 | 0.011 | 0.021 | 0.022 | 0.051 | 0.00058 | 6e-05 | 0.0024 | 0.012 | 0.015 | 0.67 | HDL Inflammatory Index in vivo (apoE deficient mice; 1 mg/kg subcutaneously, fasting female apoE deficient mice, HDL isolated 6 h after dose, normalized to LDL, Figure 3): equally effective; Kd ([2]; read-out: KD ± SEM, 4β-hydroxycholesterol): 31 µM; Kd ([2]; read-out: KD ± SEM, 20(S)-hydroxycholesterol): 3.9 µM; Kd ([2]; read-out: KD ± SEM, 22(S)-hydroxycholesterol): 15 µM; Kd ([2]; read-out: KD ± SEM, 24(S)-hydroxycholesterol): 4.3 µM; Kd ([2]; read-out: KD ± SEM, 25-hydroxycholesterol): 2.4 µM; Kd ([2]; read-out: KD ± SEM, PGPC): 0.0063 µM; Kd ([2]; read-out: KD ± SEM, cholesterol): 0.092 µM |
| Aib-RE-Ctb-Val-R-Leu-Val-Trp-E-Trp-Trp-RE-Val-NH2 [OxP-13] | reduced activity substantially | relatively small decrease in activity | very similar activity | – | – | – | – | – | – | – | – | – | – | – | – | – | – | – | – |
| apoA-I: human apoA-I | – | – | – | 21 | 1600 ± 0.3 | 1300 ± 0.5 | 850 ± 0.033 | 820 ± 0.027 | 1800 ± 0.3 | 1200 ± 0.6 | 1300 ± 0.1 | 1000 ± 0.2 | 21 | 51 | 31 | 0.01 | 0.0065 | 2 | KD ± SEM, 4β-hydroxycholesterol [2]: BND; KD ± SEM, 20(S)-hydroxycholesterol [2]: BND; KD ± SEM, 22(S)-hydroxycholesterol [2]: BND; KD ± SEM, 24(S)-hydroxycholesterol [2]: BND; KD ± SEM, 25-hydroxycholesterol [2]: BND; KD ± SEM, cholesterol [2]: BND |
| RE-Ctb-Thr-G-Leu-Ala-Trp-E-Trp-Trp-RT-Val-NH2 [OxP-2] | – | – | – | – | – | – | – | – | – | – | – | – | – | – | – | – | – | – | Inhibition of CDC-mediated hemolysis (human RBCs): enhanced the peptide's ability to inhibit CDC-mediated hemolysis |
